Source: patent US12622909B2, “Allosteric EGFR inhibitors and methods of use thereof” (Dana-Farber Cancer Institute, Inc., priority 2019, dated 2026)
Read-outs that look alike come from different tables or passages of the source.

Experiments:
EGFR L858R/T790M = EGFR L858R/T790M (Homo sapiens, UniProt P00533, L858R/T790M); assay: HTRF-based EGFR biochemical assay (L858R/T790M); conditions: 100 μM ATP, enzyme 0.02 nM
Protocol: (§1) EGFR biochemical activity measurements were carried out using the homogeneous time-resolved fluorescence (HTRF) assay (Cisbio). Inhibitors and DMSO normalizations were first dispensed to empty black low-volume 384-well plates (Corning) with D300 digital liquid dispenser (HP). All reactions were carried out at room temperature and solutions were added to plates with a Multidrop Combi Reagent Dispenser (ThermoFisher). The reaction mixture (10 μL final volume) contained 1 μM tyrosine kinase peptide-biotin substrate and mutant EGFR in a reaction buffer (50 mM HEPES pH 7.0, 5 mM MgCl2, 1 mM MnCl2, 0.01% BSA, 2 mM TCEP, 0.1 mM NaVO4). […] Enzyme reaction solution (2× concentrations, 5 μL) was added to 384-well plates containing compounds and incubated for 30 mins. Enzyme reactions were initiated with the addition of 5 μL of ATP to a final concentration of 100 μM and reacted for 20 mins.

EGFR L858R = EGFR L858R (Homo sapiens, UniProt P00533, L858R); assay: HTRF-based EGFR biochemical assay (L858R); conditions: 100 μM ATP, enzyme 0.1 nM
Protocol: as §1, with “20 mins. Reactions were quenched with the addition of 10 μL of phospho-tyrosine antibody-Europium(III) cryptate (1-to-180 volume ratio) and Streptavidin-XL665 (46.7 nM) in EDTA-containing detection buffer, then incubated at room temperature for 1 hour, and read with a PHERAstar plate reader (excitation=337 nm, emission=620 nm and 665 nm).” for “20 mins.”

[1] = biological target: EGFR L858R/T790M mutant Ba/F3 cells (Homo sapiens, UniProt P00533, T790M/L858R, cells depend on it); assay: Ba/F3 cell proliferation (Cell Titer Glo); format: cell-based, murine; conditions: 72 hours
Source text: All cell lines were maintained in RPMI 1640 (Cellgro; Mediatech Inc., Herndon, CA) supplemented with 10% FBS, 100 units/mL penicillin, 100 units/mL streptomycin. The EGFR I941R mutation was introduced via site directed mutagenesis using the Quick Change Site-Directed Mutagenesis kit (Stratagene; La Jolla, CA) according to the manufacturer's instructions. All constructs were confirmed by DNA sequencing. The constructs were shuttled into the retroviral vector JP1540 using the Cre-recombination system (Agilent Technologies, Santa Clara, CA). Ba/F3 cells were then infected with retrovirus per standard protocols, as described previously (Zhou, et al, Nature 2009). Stable clones were obtained by selection in puromycin (2 μg/ml).
Growth and inhibition of growth was assessed by the Cell Titer Glo assay (Promega, Madison, WI) and was performed according to the manufacturer's instructions. The Cell Titer Glo assay is a luminescence-based method used to determine the number of viable cells based on quantitation of the ATP present, which is directly proportional to the amount of metabolically active cells present. […] All experimental points were set up in triplicates in 384-well plates and all experiments were repeated at least three times. […] The curves were fitted using a non-linear regression model with a sigmoidal dose response.

[2] = in combination with 1 μg/ml cetuximab, read-out: Cell IC50 BaF3 L858R/T790M compound + cetuximab
[3] = single agent, read-out: Cell IC50 EGFR BaF3 L858R/T790M

Sequence of EGFR L858R/T790M mutant Ba/F3 cells (P00533 whole entry T790M/L858R): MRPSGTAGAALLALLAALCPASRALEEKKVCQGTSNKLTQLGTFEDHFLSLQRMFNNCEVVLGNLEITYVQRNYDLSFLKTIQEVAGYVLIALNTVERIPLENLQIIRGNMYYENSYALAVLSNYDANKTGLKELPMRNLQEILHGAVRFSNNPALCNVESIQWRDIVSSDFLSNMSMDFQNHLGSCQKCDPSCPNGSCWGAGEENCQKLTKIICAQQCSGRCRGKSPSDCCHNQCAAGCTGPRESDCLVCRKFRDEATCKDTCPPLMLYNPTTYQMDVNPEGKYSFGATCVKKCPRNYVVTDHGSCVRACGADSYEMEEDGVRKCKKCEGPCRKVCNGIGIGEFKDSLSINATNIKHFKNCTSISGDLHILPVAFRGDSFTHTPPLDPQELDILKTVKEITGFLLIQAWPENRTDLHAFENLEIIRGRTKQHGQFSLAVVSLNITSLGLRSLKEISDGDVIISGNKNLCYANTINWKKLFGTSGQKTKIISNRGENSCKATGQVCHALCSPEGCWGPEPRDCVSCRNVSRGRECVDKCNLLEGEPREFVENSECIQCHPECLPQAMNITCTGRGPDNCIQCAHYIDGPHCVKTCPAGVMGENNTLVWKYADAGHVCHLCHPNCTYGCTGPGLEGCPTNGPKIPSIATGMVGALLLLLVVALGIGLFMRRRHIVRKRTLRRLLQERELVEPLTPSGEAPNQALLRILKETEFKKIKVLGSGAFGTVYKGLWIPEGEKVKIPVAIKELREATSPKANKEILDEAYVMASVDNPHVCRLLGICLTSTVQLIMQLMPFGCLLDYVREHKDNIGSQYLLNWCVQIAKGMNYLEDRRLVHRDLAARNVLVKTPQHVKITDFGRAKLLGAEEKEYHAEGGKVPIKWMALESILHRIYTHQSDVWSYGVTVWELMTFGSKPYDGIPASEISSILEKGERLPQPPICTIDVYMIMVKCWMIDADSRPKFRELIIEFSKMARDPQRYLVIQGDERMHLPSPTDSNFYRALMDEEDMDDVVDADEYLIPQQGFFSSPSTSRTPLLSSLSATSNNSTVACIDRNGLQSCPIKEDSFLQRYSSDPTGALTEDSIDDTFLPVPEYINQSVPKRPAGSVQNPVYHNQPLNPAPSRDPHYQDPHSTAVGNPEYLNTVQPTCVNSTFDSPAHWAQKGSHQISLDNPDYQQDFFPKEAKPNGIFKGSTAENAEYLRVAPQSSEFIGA
Sequence of EGFR L858R/T790M (P00533 25-1210 T790M/L858R): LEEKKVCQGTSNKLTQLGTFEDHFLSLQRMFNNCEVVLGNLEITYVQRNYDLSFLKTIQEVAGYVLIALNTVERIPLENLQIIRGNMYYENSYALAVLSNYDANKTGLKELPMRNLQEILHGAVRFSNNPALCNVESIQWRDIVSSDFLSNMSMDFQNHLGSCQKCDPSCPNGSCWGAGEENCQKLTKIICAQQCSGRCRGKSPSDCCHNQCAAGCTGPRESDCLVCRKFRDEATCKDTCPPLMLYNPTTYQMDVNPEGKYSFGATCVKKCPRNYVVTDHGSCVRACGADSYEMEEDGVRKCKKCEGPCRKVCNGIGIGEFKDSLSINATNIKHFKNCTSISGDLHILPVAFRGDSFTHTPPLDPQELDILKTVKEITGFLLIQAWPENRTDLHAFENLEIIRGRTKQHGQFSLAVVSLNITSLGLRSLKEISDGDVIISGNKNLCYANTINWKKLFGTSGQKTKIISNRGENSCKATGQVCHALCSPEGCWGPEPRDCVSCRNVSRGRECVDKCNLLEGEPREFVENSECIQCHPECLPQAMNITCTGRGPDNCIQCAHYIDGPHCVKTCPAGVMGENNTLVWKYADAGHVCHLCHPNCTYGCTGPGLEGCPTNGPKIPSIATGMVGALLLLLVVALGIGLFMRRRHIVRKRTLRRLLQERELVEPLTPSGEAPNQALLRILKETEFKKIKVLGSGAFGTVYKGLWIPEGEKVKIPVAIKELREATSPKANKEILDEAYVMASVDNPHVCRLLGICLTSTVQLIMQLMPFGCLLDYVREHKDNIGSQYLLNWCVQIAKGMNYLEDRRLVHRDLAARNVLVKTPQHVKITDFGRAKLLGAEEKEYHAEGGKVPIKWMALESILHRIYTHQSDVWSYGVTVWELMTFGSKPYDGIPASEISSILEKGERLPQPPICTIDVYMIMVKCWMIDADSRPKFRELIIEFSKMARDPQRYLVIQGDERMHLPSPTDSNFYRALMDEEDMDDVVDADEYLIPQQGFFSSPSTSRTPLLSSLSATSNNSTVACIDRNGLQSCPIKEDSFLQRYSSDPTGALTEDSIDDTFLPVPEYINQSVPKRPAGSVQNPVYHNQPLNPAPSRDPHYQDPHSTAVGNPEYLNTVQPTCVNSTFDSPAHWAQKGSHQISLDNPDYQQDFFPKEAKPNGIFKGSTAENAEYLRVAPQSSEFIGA
Sequence of EGFR L858R (P00533 25-1210 L858R): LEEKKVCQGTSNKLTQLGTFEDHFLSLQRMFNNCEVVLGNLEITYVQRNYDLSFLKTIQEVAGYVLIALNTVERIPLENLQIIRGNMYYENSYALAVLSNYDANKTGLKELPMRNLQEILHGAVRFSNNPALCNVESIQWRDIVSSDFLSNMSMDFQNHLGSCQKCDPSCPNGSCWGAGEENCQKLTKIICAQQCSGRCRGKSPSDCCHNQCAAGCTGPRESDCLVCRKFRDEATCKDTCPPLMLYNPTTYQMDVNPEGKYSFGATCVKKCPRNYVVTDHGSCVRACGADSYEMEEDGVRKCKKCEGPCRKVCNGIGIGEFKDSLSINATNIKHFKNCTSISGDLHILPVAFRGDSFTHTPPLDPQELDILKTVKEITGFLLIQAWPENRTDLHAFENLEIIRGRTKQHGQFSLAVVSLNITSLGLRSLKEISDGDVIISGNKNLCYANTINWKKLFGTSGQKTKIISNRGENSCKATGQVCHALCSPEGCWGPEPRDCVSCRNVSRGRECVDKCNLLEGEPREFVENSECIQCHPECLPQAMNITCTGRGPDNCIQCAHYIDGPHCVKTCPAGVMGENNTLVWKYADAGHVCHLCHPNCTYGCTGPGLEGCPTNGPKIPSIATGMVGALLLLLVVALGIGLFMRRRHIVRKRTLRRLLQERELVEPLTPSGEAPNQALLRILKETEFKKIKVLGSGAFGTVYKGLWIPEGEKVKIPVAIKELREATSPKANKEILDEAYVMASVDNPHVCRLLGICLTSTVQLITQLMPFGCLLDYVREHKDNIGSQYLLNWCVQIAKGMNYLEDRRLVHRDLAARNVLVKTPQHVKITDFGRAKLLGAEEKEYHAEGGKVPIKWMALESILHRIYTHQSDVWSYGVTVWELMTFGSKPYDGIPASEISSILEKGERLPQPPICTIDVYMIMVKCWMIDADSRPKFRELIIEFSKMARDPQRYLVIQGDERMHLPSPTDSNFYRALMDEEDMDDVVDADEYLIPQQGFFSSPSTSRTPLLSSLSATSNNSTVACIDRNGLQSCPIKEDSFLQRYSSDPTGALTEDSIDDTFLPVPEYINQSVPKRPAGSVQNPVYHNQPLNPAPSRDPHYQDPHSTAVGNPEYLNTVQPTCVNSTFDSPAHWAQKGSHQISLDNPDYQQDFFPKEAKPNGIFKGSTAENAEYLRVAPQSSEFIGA

Structure (SMILES)	IC50 (EGFR L858R/T790M)	IC50 (EGFR L858R)	GI50 [1, 2]	GI50 [1, 3]
O=C(Nc1nccs1)C(c1ccccc1)n1ncc2ccc(Br)cc2c1=O (stereo not shown) [Compound 041, 2-(7-Bromo-1-oxophthalazin-2(1H)-yl)-2-phenyl-N-(thiazol-2-yl)-acetamide]	31 nM	> 1000 nM	> 10000 nM	> 10000 nM
CN1CCC(c2ccc(-c3ccc4cnn(C(C(=O)Nc5nccs5)c5ccccc5)c(=O)c4c3)cc2)CC1 (stereo not shown) [Compound 042, 2-(7-(4-(1-Methylpiperidin-4-yl)-phenyl)-1-oxophtharazin-2(1H)-yl)-2-phenyl-N-(thiazol-2-yl)acetamide]	4 nM	35 nM	250 nM	1460 nM
CN1CCN(c2ccc(-c3ccc4cnn(C(C(=O)Nc5nccs5)c5ccccc5)c(=O)c4c3)cc2)CC1 (stereo not shown) [Compound 043, 2-(7-(4-(4-Methylpiperazin-1-yl)-phenyl)-1-oxophthalazin-2(1H)-yl)-2-phenyl-N-(thiazol-2-yl)acetamide]	10 nM	90 nM	380 nM	2160 nM
Cc1nc2ccc(-c3ccc(C4CCN(C)CC4)cc3)cc2c(=O)n1C(C(=O)Nc1nccs1)c1ccccc1 (stereo not shown) [Compound 044, 2-(2-Methyl-6-(4-(1-methylpiperidin-4-yl)phenyl)-4-oxoquinazolin-3(4H)-yl)-2-phenyl-N-(thiazol-2-yl)acetamide]	283 nM	> 1000 nM	790 nM	2460 nM
Cc1nc2ccc(-c3ccc(N4CCN(C)CC4)cc3)cc2c(=O)n1C(C(=O)Nc1nccs1)c1ccccc1 (stereo not shown) [Compound 045, 2-(2-Methyl-6-(4-(4-methylpiperazin-1-yl)phenyl)-4-oxoquinazolin-3(4H)-yl)-2-phenyl-N-(thiazol-2-yl)-acetamide]	297 nM	> 1000 nM	4100 nM	4100 nM
Cc1nc2cc(-c3ccc(C4CCN(C)CC4)cc3)ccc2c(=O)n1C(C(=O)Nc1nccs1)c1ccccc1 (stereo not shown) [Compound 054, 2-(2-Methyl-7-(4-(1-methylpiperidin-4-yl)phenyl)-4-oxoquinazolin-3(4H)-yl)-2-phenyl-N-(thiazol-2-yl)acetamide]	42 nM	91 nM	410 nM	2480 nM
Cc1nc2cc(-c3ccc(N4CCN(C)CC4)cc3)ccc2c(=O)n1C(C(=O)Nc1nccs1)c1ccccc1 (stereo not shown) [Compound 055, 2-(2-Methyl-7-(4-(4-methylpiperazin-1-yl)phenyl)-4-oxoquinazolin-3(4H)-yl)-2-phenyl-N-(thiazol-2-yl)-acetamide]	79 nM	264 nM	1500 nM	3940 nM
CN1CCC(c2ccc(-c3cnc4c(=O)n(C(C(=O)Nc5nccs5)c5ccccc5)cnc4c3)cc2)CC1 (stereo not shown) [Compound 056, 2-(7-(4-(1-Methylpiperidin-4-yl)phenyl)-4-oxopyrido[3,2-d]pyrimidin-3(4H)-yl)-2-phenyl-N-(thiazol-2-yl)acetamide]	7 nM	32 nM	410 nM	3970 nM
CN1CCN(c2ccc(-c3cnc4c(=O)n(C(C(=O)Nc5nccs5)c5ccccc5)cnc4c3)cc2)CC1 (stereo not shown) [Compound 057, 2-(7-(4-(4-Methylpiperazin-1-yl)-phenyl)-4-oxopyrido[3,2-d]-pyrimidin-3(4H)-yl)-2-phenyl-N-(thiazol-2-yl)acetamide]	7 nM	50 nM	700 nM	4730 nM
CN1CCC(c2ccc(-c3cnc4ncn(C(C(=O)Nc5nccs5)c5ccccc5)c(=O)c4c3)cc2)CC1 (stereo not shown) [Compound 058, 2-(6-(4-(1-Methylpiperidin-4-yl)phenyl)-4-oxopyrido[2,3-d]-pyrimidin-3(4H)-yl)-2-phenyl-N-(thiazol-2-yl)acetamide]	2 nM	8 nM	12 nM	930 nM
CN1CCN(c2ccc(-c3cnc4ncn(C(C(=O)Nc5nccs5)c5ccccc5)c(=O)c4c3)cc2)CC1 (stereo not shown) [Compound 059, 2-(6-(4-(4-Methylpiperazin-1-yl)-phenyl)-4-oxopyrido[2,3-d]-pyrimidin-3(4H)-yl)-2-phenyl-N-(thiazol-2-yl)acetamide]	8 nM	48 nM	84 nM	1370 nM
CN1CCC(c2ccc(-c3cc(F)c4ncn(C(C(=O)Nc5nccs5)c5ccccc5)c(=O)c4c3)cc2)CC1 (stereo not shown) [Compound 060, 2-(8-Fluoro-6-(4-(1-methylpiperidin-4-yl)phenyl)-4-oxoquinazolin-3-(4H)-yl)-2-phenyl-N-(thiazol-2-yl)-acetamide]	0.6 nM	4 nM	9 nM	710 nM
O=C(Nc1nccs1)C(c1cccnc1)n1cnc2ccc(Br)cc2c1=O (stereo not shown) [Compound 062, 2-(6-Bromo-4-oxoquinazolin-3(4H)-yl)-2-(pyridin-3-yl)-N-(thiazol-2-yl)-acetamide]	220 nM	> 1000 nM	> 10000 nM	> 10000 nM
CN1CCN(c2ccc(-c3ccc4ncn(C(C(=O)Nc5nccs5)c5cccnc5)c(=O)c4c3)cc2)CC1 (stereo not shown) [Compound 064, 2-(6-(4-(4-Methylpiperazin-1-yl)-phenyl)-4-oxoquinazolin-3(4H)-yl)-2-(pyridin-3-yl)-N-(thiazol-2-yl)-acetamide]	5 nM	78 nM	490 nM	6150 nM
CN1CCC(c2ccc(-c3ccc4ncn(C(C(=O)Nc5nccs5)c5cccnc5)c(=O)c4c3)cc2)CC1 (stereo not shown) [Compound 065, 2-(6-(4-(1-Methylpiperidin-4-yl)-phenyl)-4-oxoquinazolin-3(4H)-yl)-2-(pyridin-3-yl)-N-(thiazol-2-yl)-acetamide]	2 nM	29 nM	380 nM	7810 nM
CN1CCC(c2ccc(-c3ccc4ncn(C(C(=O)Nc5nccs5)c5ccccc5F)c(=O)c4c3)cc2)CC1 (stereo not shown) [Compound 066, 2-(2-Fluorophenyl)-2-(6-(4-(1-methylpiperidin-4-yl)phenyl)-4-oxo-quinazolin-3(4H)-yl)-N-(thiazol-2-yl)-acetamide]	0.2 nM	2 nM	20 nM	1880 nM
CN1CCN(c2ccc(-c3ccc4ncn(C(C(=O)Nc5nccs5)c5ccccc5F)c(=O)c4c3)cc2)CC1 (stereo not shown) [Compound 067, 2-(2-fluorophenyl)-2-(6-(4-(4-methylpiperazin-1-yl)phenyl)-4-oxo-quinazolin-3(4H)-yl)-N-(thiazol-2-yl)-acetamide]	1 nM	13 nM	41 nM	3960 nM
CN1CCC(c2ccc(-c3ccc4ncn(C(C(=O)Nc5nccs5)c5ccccn5)c(=O)c4c3F)cc2)CC1 (stereo not shown) [Compound 068, 2-(5-Fluoro-6-(4-(1-methylpiperidin-4-yl)phenyl)-4-oxoquinazolin-3(4H)-yl)-2-(pyridin-2-yl)-N-(thiazol-2-yl)-acetamide]	0.7 nM	5 nM	18 nM	1560 nM
CN1CCC(c2ccc(-c3ccc4ncn(C(C(=O)Nc5nccs5)c5cccc(F)c5)c(=O)c4n3)cc2)CC1 (stereo not shown) [Compound 069, 2-(3-Fluorophenyl)-2-(6-(4-(1-methylpiperidin-4-yl)phenyl)-4-oxo-pyrido[3,2-d]pyrimidin-3(4H)-yl)-N-(thiazol-2-yl)acetamide]	0.5 nM	7 nM	28 nM	2810 nM
